In US20250154109A1, “SODIUM CHANNEL BLOCKING COMPOUNDS, DERIVATIVES THEREOF, AND METHODS OF THEIR USE” (LATIGO BIOTHERAPEUTICS, INC, priority 2022, published 2025) one finds IC50 data, which are given here for 21 compounds.

The test addresses human Nav1.8 (Homo sapiens, UniProt Q9Y5Y9). Description: SyncroPatch384PE assay (automated patch clamp). The test is classed as cell-based. As to conditions: human Nav1.8/b3 CHO cells. On the procedure: Compounds were tested on recombinant human Nav1.8/b3 stably transfected CHO cells using the SyncroPatch384PE system (Nanion Technologies), an automated patch clamp device. Cells were cultured at 37° C./5% CO2 in Ham's F-12 supplemented with 10% fetal bovine serum, 100 U/mL penicillin G sodium, […] streptomycin sulfate and selection antibiotics (0.01 mg/mL Blasticidin, 0.4 mg/mL Zeocin and 0.25 mg/mL Hygromycin). On the day of the recordings, cells in culture dishes were washed twice with Hank's Balanced Salt Solution (HBSS) and treated with Accutase for approximately 20 minutes. Immediately before use in the SynchroPatch384PE using an 8-hole NPC-384 chip, the cells were washed in HBSS to remove the Accutase and re-suspended in extracellular solution. All experiments were performed at ambient temperature. Intracellular solution contained (mM): CsCl, 50; CsF, 90; MgCl2, 5; EGTA, 1; HEPES, 10; pH adjusted to 7.2 with CsOH. Extracellular solution contained (mM): NaCl, 137; KCl, 4.0; CaCl2), 3.8; MgCl2, 1; HEPES, 10; Glucose, 10; pH adjusted to 7.4 with NaOH. 100 nM tetrodotoxin (TTX) was added to the extracellular solution to block endogenous TTX-sensitive sodium currents.
Compounds were tested in quadruplicate in 0.3% DMSO and 0.03% pluronic Acid. Compounds were diluted 1:3.33 in extracellular solution to create an 8-point concentration response curve. Each plate contained a historical positive control and up to ten compounds. 300 μM tetracaine and 0.3% DMSO+0.03% pluronic acid were used as high and low controls respectively.
Whole cell patch clamp recordings were conducted according to Nanion's standard procedure for SyncroPatch384PE®. Cells were held at a holding potential of −120 mV. A depolarization step to 10 mV for 30 ms was applied (P1 measurement), followed by a hyperpolarization step to −100 mV for 100 ms. An inactivation step at −35 mV for 10 sec was applied before stepping to −100 mV for 20 ms, followed by a step to 10 mV for 30 ms (P2 measurement) and then back to −100 mV for 30 ms. Sweep interval was 15 sec. Following establishment of the whole-cell configuration in extracellular solution, cells were washed in extracellular solution containing 0.3% DMSO and 0.03% pluronic acid to stabilize the baseline current. Compounds were then applied by the SynchroPatch384 PE system into each well and the current was recorded for five minutes in extracellular solution, followed by application of tetracaine to achieve full block at the end of experiment. The potency of the compounds was assessed on two read-outs, resting state block (P1 measurement) or inactivated state block (P2 measurement) to obtain IC50 values. Values were normalized to high (tetracaine) and low (DMSO+pluronic acid) controls.
Examples 1 to 219 and Examples 225 to 236 are assayed using SyncroPatch384PE assay described above.

[1] abbreviates: inactivated state block (P2 measurement), read-out: P2 IC50.
[2] abbreviates: resting state block (P1 measurement), read-out: P1 IC50.

Read-outs that look alike come from different tables or passages of the source.

human Nav1.8, sequence (Q9Y5Y9 whole entry): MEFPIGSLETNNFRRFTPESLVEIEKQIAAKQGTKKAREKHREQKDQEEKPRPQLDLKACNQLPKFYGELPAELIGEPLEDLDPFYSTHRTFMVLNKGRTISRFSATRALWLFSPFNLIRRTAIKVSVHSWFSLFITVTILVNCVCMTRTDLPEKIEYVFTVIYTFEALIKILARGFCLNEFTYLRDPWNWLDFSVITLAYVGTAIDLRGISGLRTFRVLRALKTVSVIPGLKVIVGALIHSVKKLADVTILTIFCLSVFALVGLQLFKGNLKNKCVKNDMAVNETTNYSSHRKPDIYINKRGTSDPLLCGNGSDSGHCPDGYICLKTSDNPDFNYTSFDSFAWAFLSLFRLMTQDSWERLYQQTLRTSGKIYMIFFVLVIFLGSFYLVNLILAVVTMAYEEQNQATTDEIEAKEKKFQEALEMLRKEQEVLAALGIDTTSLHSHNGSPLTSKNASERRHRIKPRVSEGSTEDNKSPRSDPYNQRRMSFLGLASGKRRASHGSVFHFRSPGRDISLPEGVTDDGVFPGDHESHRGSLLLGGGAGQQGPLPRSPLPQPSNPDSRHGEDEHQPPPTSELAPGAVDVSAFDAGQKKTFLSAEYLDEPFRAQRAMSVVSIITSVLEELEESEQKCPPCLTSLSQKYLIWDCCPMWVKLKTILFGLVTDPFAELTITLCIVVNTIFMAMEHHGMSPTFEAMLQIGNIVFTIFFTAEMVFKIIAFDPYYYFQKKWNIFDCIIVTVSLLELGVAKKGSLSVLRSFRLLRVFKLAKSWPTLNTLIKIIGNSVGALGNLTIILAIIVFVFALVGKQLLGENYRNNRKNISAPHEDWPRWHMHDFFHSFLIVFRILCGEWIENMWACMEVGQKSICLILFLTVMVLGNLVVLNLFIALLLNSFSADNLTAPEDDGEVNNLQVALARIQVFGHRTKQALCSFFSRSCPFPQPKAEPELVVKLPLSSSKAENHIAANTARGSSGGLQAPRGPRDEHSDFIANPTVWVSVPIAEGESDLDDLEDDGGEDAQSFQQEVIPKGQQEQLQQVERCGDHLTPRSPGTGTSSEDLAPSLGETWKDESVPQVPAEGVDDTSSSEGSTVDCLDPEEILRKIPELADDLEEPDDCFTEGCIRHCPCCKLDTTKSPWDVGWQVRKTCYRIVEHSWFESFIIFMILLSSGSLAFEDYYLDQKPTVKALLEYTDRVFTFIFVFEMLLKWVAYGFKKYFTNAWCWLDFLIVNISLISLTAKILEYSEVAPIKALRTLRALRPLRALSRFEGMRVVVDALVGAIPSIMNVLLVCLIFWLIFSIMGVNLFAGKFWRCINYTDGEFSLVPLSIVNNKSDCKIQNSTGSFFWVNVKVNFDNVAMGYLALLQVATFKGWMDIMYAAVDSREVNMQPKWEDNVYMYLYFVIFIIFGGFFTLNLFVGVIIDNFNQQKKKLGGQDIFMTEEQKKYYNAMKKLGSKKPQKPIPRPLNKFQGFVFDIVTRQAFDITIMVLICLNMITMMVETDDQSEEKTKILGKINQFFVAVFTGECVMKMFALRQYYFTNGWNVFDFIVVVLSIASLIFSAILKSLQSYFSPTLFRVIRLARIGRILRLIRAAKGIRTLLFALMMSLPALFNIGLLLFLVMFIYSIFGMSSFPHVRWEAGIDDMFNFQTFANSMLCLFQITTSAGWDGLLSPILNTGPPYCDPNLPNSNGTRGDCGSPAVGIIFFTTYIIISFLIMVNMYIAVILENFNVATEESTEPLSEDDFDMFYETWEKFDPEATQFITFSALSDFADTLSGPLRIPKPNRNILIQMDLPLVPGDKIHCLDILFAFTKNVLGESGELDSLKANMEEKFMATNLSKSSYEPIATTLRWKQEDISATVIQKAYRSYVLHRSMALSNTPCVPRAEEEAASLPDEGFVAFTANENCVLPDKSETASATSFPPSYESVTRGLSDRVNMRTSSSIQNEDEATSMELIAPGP

For orientation: IC50 means the concentration needed to halve the response being measured. `Cc1c(-c2cnn(C)c2)cnc(N2CCCC(F)(F)CC2)c1C(=O)NC12CC(C(N)=O)(C1)C2` [Example 132, N-(3-carbamoylbicyclo[1.1.1]pentan-1-yl)-2-(4,4-difluoroazepan-1-yl)-4-methyl-5-(1-methyl-1H-pyrazol-4-yl)nicotinamide]: the half-maximal inhibitory concentration (IC50) reads like this: under setting [1], > 200 nM; under setting [2], > 200 nM.

With `CNCC(=O)N=[S@](C)(=O)c1cccc(NC(=O)c2c(N3CCCC(F)(F)CC3)ncc(C(F)(F)F)c2C)c1` [Example 194, (R)-2-(4,4-difluoroazepan-1-yl)-4-methyl-N-(3-(S-methyl-N-(methylglycyl)sulfonimidoyl)phenyl)-5-(trifluoromethyl)nicotinamide], the IC50 under setting [1] is ≤ 5 nM and the IC50 under setting [2] is ≤ 5 nM.

Turning to `Cc1c(-c2cnn(C(F)F)c2)cnc(N2CCCC(F)(F)CC2)c1C(=O)Nc1cccc([S@](C)(=N)=O)c1` [Example 159, (R)-2-(4,4-difluoroazepan-1-yl)-5-(1-(difluoromethyl)-1H-pyrazol-4-yl)-4-methyl-N-(3-(S-methylsulfonimidoyl)phenyl)nicotinamide], the IC50 under setting [1] lay within 5 to 50 nM and the IC50 under setting [2] was 5 to 50 nM.

`Cc1n[nH]c(C)c1-c1cnc(N2CCCC(F)(F)CC2)c(C(=O)Nc2cccc([S@](C)(=N)=O)c2)c1C` [Example 152, (R)-2-(4,4-difluoroazepan-1-yl)-5-(3,5-dimethyl-1H-pyrazol-4-yl)-4-methyl-N-(3-(S-methylsulfonimidoyl)phenyl)nicotinamide]: the half-inhibitory concentration (IC50) is, setting by setting: under setting [1], > 200 nM; under setting [2], > 200 nM.

Turning to `CS(=N)(=O)c1cccc(NC(=O)c2ccc(CC3CC3)nc2N2CCC3(CC2)CC3)c1` (stereo not drawn) [Example 80, 6-(cyclopropylmethyl)-N-(3-(S-methylsulfonimidoyl)phenyl)-2-(6-azaspiro[2.5]octan-6-yl)nicotinamide], the IC50 is, setting by setting: under setting [1], 5 to 50 nM; under setting [2], 5 to 50 nM.

Consider `Cc1c(Br)c(C(F)(F)F)nc(N2CCCC(F)(F)CC2)c1C(=O)Nc1cccc([S@](C)(=N)=O)c1` [Example 130, (R)-5-bromo-2-(4,4-difluoroazepan-1-yl)-4-methyl-N-(3-(S-methylsulfonimidoyl)phenyl)-6-(trifluoromethyl)nicotinamide], for which the IC50 reads like this: under setting [1], ≤ 5 nM; under setting [2], ≤ 5 nM.

Take `Cc1c(Cl)c(C#N)nc(N2CCCC(F)(F)CC2)c1C(=O)Nc1cccc([S@](C)(=N)=O)c1` [Example 171, (R)-5-chloro-6-cyano-2-(4,4-difluoroazepan-1-yl)-4-methyl-N-(3-(S-methylsulfonimidoyl)phenyl)nicotinamide]: the IC50 is, setting by setting: under setting [1], ≤ 5 nM; under setting [2], ≤ 5 nM.

Consider `COc1ccc(-c2nnc(N3CCCC(F)(F)CC3)c(C(=O)Nc3cccc([S@](C)(=N)=O)c3)c2C)cc1` (single isomer, unassigned) [Example 138], for which the IC50 by setting is: under setting [1], 100 to 200 nM; under setting [2], > 200 nM.

Consider `Cc1c(C(F)(F)F)cnc(N2CCCC(F)(F)CC2)c1C(=O)Nc1cccc([S@@](C)(=O)=NC(=O)CN2CC(F)(F)C2)c1` [Example 202, (R)-2-(4,4-difluoroazepan-1-yl)-N-(3-(N-(2-(3,3-difluoroazetidin-1-yl)acetyl)-S-methylsulfonimidoyl)phenyl)-4-methyl-5-(trifluoromethyl)nicotinamide], for which the IC50 reads like this: under setting [1], ≤ 5 nM; under setting [2], ≤ 5 nM.

In the case of `CNCC(=O)N=[S@](C)(=O)c1cccc(NC(=O)c2c(N3CCCC(F)(F)CC3)nnc(-c3cnn(C)c3)c2C)c1` [Example 72, (R)-3-(4,4-difluoroazepan-1-yl)-5-methyl-6-(1-methyl-1H-pyrazol-4-yl)-N-(3-(S-methyl-N-(methylglycyl)sulfonimidoyl)phenyl)pyridazine-4-carboxamide], the IC50 by setting is: under setting [1], 50 to 100 nM; under setting [2], 50 to 100 nM.

Turning to `Cc1c(-c2cnn(C)c2)cnc(N2CCCC(F)(F)CC2)c1C(=O)Nc1cccc([S@@](C)(=O)=NC(=O)[C@H](C)O)c1` [Example 231, 2-(4,4-difluoroazepan-1-yl)-N-(3-((R)-N-((S)-2-hydroxypropanoyl)-S-methylsulfonimidoyl)phenyl)-4-methyl-5-(1-methyl-1H-pyrazol-4-yl)nicotinamide], the IC50 reads like this: under setting [1], 5 to 50 nM; under setting [2], 5 to 50 nM.

As to `Cc1c(C(F)(F)F)nnc(N2CCCC(F)(F)CC2)c1C(=O)Nc1ccnc(S(=N)(N)=O)c1` (stereo not drawn) [Example 119, 3-(4,4-difluoroazepan-1-yl)-5-methyl-N-(2-sulfamidimidoylpyridin-4-yl)-6-(trifluoromethyl)pyridazine-4-carboxamide], the half-maximal inhibitory concentration (IC50) is 5 to 50 nM under setting [1] and 5 to 50 nM under setting [2].

Turning to `Cc1c(Br)cnc(N2CCCC(F)(F)CC2)c1C(=O)Nc1cccc([S@@](C)(=O)=NCCN)c1` [Example 209, (R)-N-(3-(N-(2-aminoethyl)-S-methylsulfonimidoyl)phenyl)-5-bromo-2-(4,4-difluoroazepan-1-yl)-4-methylnicotinamide 2,2,2-trifluoroacetate], the IC50 under setting [1] was ≤ 5 nM and the IC50 under setting [2] is ≤ 5 nM.

`CNCC(=O)N=[S@](C)(=O)c1cccc(NC(=O)c2c(N3CCCC(F)(F)CC3)nnc(C(F)(F)F)c2C)c1` [Example 43, (R)-3-(4,4-difluoroazepan-1-yl)-5-methyl-N-(3-(S-methyl-N-(methylglycyl)sulfonimidoyl)phenyl)-6-(trifluoromethyl)pyridazine-4-carboxamide]: the IC50 was ≤ 5 nM under setting [1] and ≤ 5 nM under setting [2].

For the compound `CS(=N)(=O)c1cccc(NC(=O)c2nnc(C(F)(F)F)cc2N2CCCCCC2)c1` (stereo not drawn) [Example 9, 4-(azepan-1-yl)-N-(3-(S-methylsulfonimidoyl)phenyl)-6-(trifluoromethyl)pyridazine-3-carboxamide], the IC50 under setting [1] is > 200 nM and the IC50 under setting [2] is > 200 nM.

Turning to `Cc1c(-c2cnn(C)c2)cnc(N2CCCC(F)(F)CC2)c1C(=O)Nc1cccc([S@@](C)(=O)=NC(=O)CN)c1` [Example 74, (R)-2-(4,4-difluoroazepan-1-yl)-N-(3-(N-glycyl-S-methylsulfonimidoyl)phenyl)-4-methyl-5-(1-methyl-1H-pyrazol-4-yl)nicotinamide], the IC50 fell in the range of 5 to 50 nM under setting [1] and 5 to 50 nM under setting [2].

As to `Cc1c(C(F)(F)F)ncc(N2CCCC(F)(F)CC2)c1C(=O)Nc1cccc([S@](C)(=N)=O)c1` [Example 197, (R)-5-(4,4-difluoroazepan-1-yl)-3-methyl-N-(3-(S-methylsulfonimidoyl)phenyl)-2-(trifluoromethyl)isonicotinamide], the concentration for half-maximal inhibition (IC50) under setting [1] lay in the range of 50 to 100 nM and the IC50 under setting [2] was 50 to 100 nM.

In the case of `Cc1c(C(=O)Nc2cccc([S@@](C)(=O)=NC(=O)[C@@H](C)O)c2)c(N2CCCC(F)(F)CC2)nc(C(F)(F)F)c1-c1cnn(C)c1` [Example 236, 2-(4,4-difluoroazepan-1-yl)-N-(3-((R)-N-((R)-2-hydroxypropanoyl)-S-methylsulfonimidoyl)phenyl)-4-methyl-5-(1-methyl-1H-pyrazol-4-yl)-6-(trifluoromethyl)nicotinamide], the IC50 runs as follows: under setting [1], ≤ 5 nM; under setting [2], ≤ 5 nM.

Take `Cc1c(C(F)(F)F)cnc(N2CCCC(F)(F)CC2)c1C(=O)Nc1cccc([S@@](C)(=O)=NC(=O)CO)c1` [Example 195, (R)-2-(4,4-difluoroazepan-1-yl)-N-(3-(N-(2-hydroxyacetyl)-S-methylsulfonimidoyl)phenyl)-4-methyl-5-(trifluoromethyl)nicotinamide]: the IC50 runs as follows: under setting [1], ≤ 5 nM; under setting [2], ≤ 5 nM.

As for `Cc1cc(C(F)(F)F)nc(N2CCCC(F)(F)CC2)c1C(=O)Nc1cccc([S@@](C)(=N)=O)c1` [Example 34, (S)-2-(4,4-Difluoroazepan-1-yl)-4-methyl-N-(3-(S-methylsulfonimidoyl)phenyl)-6-(trifluoromethyl)nicotinamide], the IC50 by setting is: under setting [1], ≤ 5 nM; under setting [2], ≤ 5 nM.

As to `Cc1c(Cl)cnc(N2CCCC(F)(F)CC2)c1C(=O)Nc1cccc(S(C)(=N)=O)c1` (stereo not drawn) [Example 95, 5-chloro-2-(4,4-difluoroazepan-1-yl)-4-methyl-N-(3-(S-methylsulfonimidoyl)phenyl)nicotinamide], the IC50 by setting is: under setting [1], ≤ 5 nM; under setting [2], ≤ 5 nM.
